Literature values as cited in US7838281B2, “Sulfide bath” (Soothing Sulfur Spas, LLC, priority 2007, dated 2010).

Conditions: aqueous solution

Compound	pK for the HCO3^−/CO2	pK for the HS^−/S^−2
O=C(O)O [HCO3^−]	6.2	
S [HS^−]		14
